How the values were obtained:
WI-26 cells = test: MTT assay on normal WI-26 cells (cytotoxicity); type: cell-based; conditions: MTT assay after 48 hours; data not shown
Protocol: As a result, 22 compounds were primarily screened. Normal cells, that is, WI-26 cells were treated with the 22 compounds.

NCI-H460 [1] = test: MTT assay on lung cancer cell line NCI-H460; type: cell-based, human; conditions: 0.04 uM, 0.4 uM and 4 uM; 24, 48 and 72 hours; serum free RPMI; FIG. 6
Protocol: Lung cancer cell line, NCI-H460, was cultured in RPMI (HyQ RPMI-1640, Hyclone) medium of streptomycin, containing 10% fetal bovine serum and 1% penicillin for 48 hours, and transferred to a 96-well plate. 12 hours later, the medium was replaced by serum free RPMI medium, and then the cell line was treated with the compound of Formula 1 at a concentration of 0.04 uM, 0.4 uM and 4 uM. 24 hours, 48 hours, and 72 hours later, MTT assay at each concentration was performed.

NCI-H460 [2] = test: FACS assay of apoptosis in NCI-H460; type: cell-based, human; conditions: medium containing 2% FBS; FIG. 7
Protocol: Lung cancer cell line, NCI-H460, was cultured in RPMI (HyQ RPMI-1640, Hyclone) of streptomycin, containing 10% fetal bovine serum, and 1% penicillin. In order to investigate the effect of the inventive compound on a cell cycle, cells were treated with the inventive compound and cultured in medium containing 2% FBS. The cells were collected and subjected to FACS assay.

NCI-H460 cells = test: nude mouse transplanted with NCI-H460 cells, tumor growth inhibition; type: in vivo; conditions: salt form, 50 mg/kg once a day, 27 days
Protocol: A nude mouse transplanted with NCI-H460 cells (human-derived lung cancer cell line) was administered with the […], through intra-abdominal cavity and intra-subcutaneous injection. Then, a growth inhibiting effect of a tumor was tested. Mice were divided into three groups such as a negative control group, and groups administered with a test material in doses of 50 and 100 mg/kg. Each group included 10 mice. The negative control group was administered with a mixture solution containing DMSO (excipient), Tween80, PEG400, and injection water, and the groups administered with the test material in doses of 50 mg/kg were administered with the inventive compound once a day, for 27 days including an autopsy day, 28 times in total (4 times for intra-abdominal cavity injection and 24 times for intra-subcutaneous injection.
During the observation period, general symptoms were observed once a day, and the body weight of an animal and the volume of a tumor were measured twice a week. On the day before autopsy, all individuals were fasted for 18 hours or more. On the day of autopsy, 0.5, 1 and 2 hours 1 after the test material was administered, from 3 mice, 3 mice and 4 mice from respective groups, blood was collected and tumor was extracted.
The collected blood was placed in an EDTA-containing tube, and centrifuged to separate plasma. The extracted tumor was weighed. Half of the plasma and the tumor were rapidly frozen by liquid nitrogen and placed in a frozen state, and the rest were fixed with 10% neutral buffered formalin solution and sent to a test client.

## CCOC(=O)CC(=O)Nc1ccc(C(=O)O)cc1 [P.C]
WI-26 cells
  cytotoxicity in normal WI-26 cells: no cytotoxicity
NCI-H460 [1]
  cell death of lung cancer cells (MTT): cell death depending on treating time and concentration
NCI-H460 [2]
  apoptosis rate of cancer cells (FACS): concentration-dependently improves apoptosis rate
NCI-H460 cells; FIG. 10
  body weight of mouse vs control group: no difference
NCI-H460 cells; FIG. 12
  tumors observed (photograph) vs control group: visibly significantly reduced
NCI-H460 cells; at autopsy, FIG. 11
  weight of tumor vs control group: significantly reduced
NCI-H460 cells; intra-abdominal and subcutaneous injection, FIG. 9
  volume of the tumor vs control group: significantly reduced
